The text below walks through data of US20230114241A1, “METHODS OF TREATING EPILEPSY USING THE SAME” (Trevena, Inc., priority 2019, published 2023).

The structures appear in SMILES notation.

Chain of human sphingosine-1-phosphate receptor 1 (S1P1) (P21453 whole entry): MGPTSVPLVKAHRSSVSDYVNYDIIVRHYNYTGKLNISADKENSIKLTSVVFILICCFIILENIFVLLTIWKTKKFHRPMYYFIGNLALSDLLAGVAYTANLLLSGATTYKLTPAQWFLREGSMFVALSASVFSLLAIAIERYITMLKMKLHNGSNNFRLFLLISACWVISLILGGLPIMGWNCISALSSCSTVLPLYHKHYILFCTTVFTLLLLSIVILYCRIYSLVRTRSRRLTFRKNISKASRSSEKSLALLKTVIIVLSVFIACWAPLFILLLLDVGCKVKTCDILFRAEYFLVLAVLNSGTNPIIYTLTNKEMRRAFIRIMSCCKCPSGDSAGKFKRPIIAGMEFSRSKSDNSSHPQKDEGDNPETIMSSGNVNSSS

One assay concerns the target human sphingosine-1-phosphate receptor 1 (S1P1) (Homo sapiens, UniProt P21453). The assay can be described thus: Inhibition of cAMP production (HTRF cAMP HiRange), S1P1 CHO-K1 cells. It is filed as cell-based. Conditions: inhibition of cAMP production, S1P1; read-out: hS1P1 CAMP pEC50 (converted). The method in brief: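 CHO-K1 cells co-expressing human S1P1 (C-terminal ProLink tag) and EA-β-arrestin2, plated overnight; after 30 min compound incubation at 37 °C, intracellular cAMP measured by HTRF TR-FRET following 1 h at room temperature. Values normalized to fingolimod.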
In the case of `CCc1ccccc1-c1nc(-c2ccc3c(c2)nnn3C(C)(C)CO)no1` [Compound 624, 2-(5-(5-(2-ethyl-phenyl)-1,2,4-oxadiazol-3-yl)-1H-benzo[d][1,2,3]triazol-1-yl)-2-methyl-propan-1-ol], the EC50 was over 316 nM.

Turning to `CC(C)n1nnc2cc(-c3nc(-c4ccccn4)co3)ccc21` [Compound 474, 1-(propan-2-yl)-5-[4-(pyridin-2-yl)-1,3-oxazol-2-yl]-1H-1,2,3-benzotriazole], the EC50 was over 316 nM. As to `CC(C)Nc1ccc(-c2nc(-c3ccc4sc(N)nc4c3)no2)cc1C#N` [Compound 441, 5-(3-(2-aminobenzo[d]thiazol-5-yl)-1,2,4-oxadiazol-5-yl)-2-(isopropylamino) benzonitrile], the EC50 was under 316 nM. In the case of `Cc1ccccc1-c1cc(-c2ccc3c(c2)nnn3C(C)C)n(C)c1` [Compound 517, 5-[1-methyl-4-(2-methylphenyl)-1H-pyrrol-2-yl]-1-(propan-2-yl)-1H-1,2,3-benzotriazole], the EC50 was over 316 nM.

Consider `Cc1cccc2nc(-c3ccc4c(c3)nnn4C(C)C)oc12` [Compound 421, 2-(1-isopropyl-1H-benzo[d][1,2,3]triazol-5-yl)-7-methyl-benzo[d]oxazole], for which the EC50 is over 316 nM. Take `CC(C)n1nnc2cc(-c3nc4c(ccc5sccc54)o3)ccc21` [Compound 457, 4-[1-(propan-2-yl)-1H-1,2,3-benzotriazol-5-yl]-5-oxa-10-thia-3-azatricyclo[7.3.0.0^2,6] dodeca-1(9),2(6),3,7,11-pentaene]: the EC50 is under 316 nM.

`CC(C)(O)Cn1nnc2cc(-c3nc(-c4ccncc4C(F)(F)F)no3)ccc21` [Compound 460, 2-methyl-1-(5-{3-[3-(trifluoromethyl)pyridin-4-yl]-1,2,4-oxadiazol-5-yl}-1H-1,2,3-benzotriazol-1-yl)propan-2-ol]: the EC50 was over 316 nM. On the same count and under the same terms, then `CC(C)Oc1ccc(-c2ccc(-c3ccc4c(c3)nnn4C(C)C)cc2)cc1C#N` [Compound 506, 4-isopropoxy-4′-(1-isopropyl-1H-benzo[d][1,2,3]triazol-5-yl)-[1,1′-biphenyl]-3-carbonitrile], with under 316 nM; and `CC(C)n1nnc2cc(-c3nc4c(o3)COc3ccccc3-4)ccc21` [Compound 462, 5-{4H-chromeno[4,3-d][1,3]oxazol-2-yl}-1-(propan-2-yl)-1H-1,2,3-benzotriazole], with under 316 nM; and `CC(C)Nc1ccc(-c2ccc(-c3ccc4c(c3)nnn4C(C)C)cc2)cc1C#N` [Compound 507, 4′-(1-isopropyl-1H-benzo[d][1,2,3]triazol-5-yl)-4-(isopropylamino)-[1,1′-biphenyl]-3-carbonitrile], with under 316 nM. Regarding `Cc1ccncc1-c1nc(-c2ccc3c(c2)nnn3C(C)(C)CO)no1` [Compound 625, 2-methyl-2-(5-(5-(4-methylpyridin-3-yl)-1,2,4-oxadiazol-3-yl)-1H-benzo[d] [1,2,3]triazol-1-yl)propan-1-ol], the EC50 was over 316 nM.

Take `Cc1ccc2nc(-c3ccc4c(c3)nnn4C(C)C)oc2c1` [Compound 420, 2-(1-isopropyl-1H-benzo[d][1,2,3]triazol-5-yl)-6-methyl-benzo[d]oxazole]: the EC50 was under 316 nM.

As to `Cc1ccccc1-c1coc(-c2ccc3c(c2)nnn3C(C)C)n1` [Compound 433, 5-[4-(2-methylphenyl)-1,3-oxazol-2-yl]-1-(propan-2-yl)-1H-1,2,3-benzotriazole], the EC50 was under 316 nM.

Staying with this assay, now noted: inhibition of cAMP production; potency; read-out: hS1P1 CAMP pEC50 (converted).
`CC(C)n1nnc2cc(-c3noc(-c4ccccc4F)n3)ccc21` [Compound 307, 5-(2-fluorophenyl)-3-(1-isopropyl-1H-benzo[d][1,2,3]triazol-5-yl)-1,2,4-oxadiazole]: the EC50 was under 316 nM.

For `CCC1(CC)CC(=O)c2cc(-c3nc(-c4ccc5[nH]cnc5c4)no3)ccc2O1` [Compound 211, 6-(3-(1H-benzo[d]imidazol-5-yl)-1,2,4-oxadiazol-5-yl)-2,2-diethylchroman-4-one], the EC50 was over 316 nM.

With `CC(C)n1ccc2cc(-c3nc(-c4ccccc4O)no3)ccc21` [Compound 323, 2-(5-(1-isopropyl-1H-indol-5-yl)-1,2,4-oxadiazol-3-yl)phenol], the EC50 is over 316 nM. For the molecule `CC(C)n1nnc2cc(-c3noc(-c4cnccn4)n3)ccc21` [Compound 78, 3-(1-isopropyl-1H-benzo[d][1,2,3]triazol-5-yl)-5-(pyrazin-2-yl)-1,2,4-oxadiazole], the EC50 is over 316 nM. The same measure, in the same setting: in the case of `O=C1CCOc2ccc(-c3nc(-c4cccnc4)no3)cc21` [Compound 102, 6-[3-(pyridin-3-yl)-1,2,4-oxadiazol-5-yl]-3,4-dihydro-2H-1-benzopyran-4-one] it was over 316 nM; in that of `COc1cccc(-c2nc(-c3ccc4c(c3)nnn4C3CCCC3)no2)c1` [Compound 130, 3-(1-cyclopentyl-1H-benzo[d][1,2,3]triazol-5-yl)-5-(3-methoxy-phenyl)-1,2,4-oxadiazole], over 316 nM. On to `O=C1CC2(CCCC2)Oc2ccc(-c3nc(-c4ccncc4)no3)cc21` [Compound 176, 6-[3-(pyridin-4-yl)-1,2,4-oxadiazol-5-yl]-3,4-dihydrospiro[1-benzopyran-2,1′-cyclopentane]-4-one], for which the EC50 is over 316 nM.

As for `N#Cc1cc(-c2nc(-c3ccc4c(c3)CCC(=O)N4)no2)ccc1NCC1CC1` [Compound 302, 2-((cyclopropyl-methyl)amino)-5-(3-(2-oxo-1,2,3,4-tetrahydroquinolin-6-yl)-1,2,4-oxadiazol-5-yl)benzonitrile], the EC50 is under 316 nM. In the case of `CCc1ncc(-c2noc(-c3ccc4c(c3)nnn4C(C)C)n2)cn1` [Compound 135, 5-[3-(2-ethylpyrimidin-5-yl)-1,2,4-oxadiazol-5-yl]-1-(propan-2-yl)-1H-1,2,3-benzotriazole], the EC50 was over 316 nM.

As for `Cc1ccccc1-c1noc(-c2ccc3c(c2)nnn3CC(C)(C)O)n1` [Compound 139, 2-methyl-1-{5-[3-(2-methylphenyl)-1,2,4-oxadiazol-5-yl]-1H-1,2,3-benzotriazol-1-yl}propan-2-ol], the EC50 was under 316 nM. Same read-out and setting: in the case of `Cc1cc(-c2nc(-c3ccc4c(c3)nnn4C(C)C)no2)ccn1` [Compound 86, 3-(1-isopropyl-1H-benzo[d][1,2,3]triazol-5-yl)-5-(2-methyl-pyridin-4-yl)-1,2,4-oxadiazole] it was over 316 nM; in that of `C=CCNc1ccc(-c2nc(-c3ccc4[nH]ncc4c3)no2)cc1C#N` [Compound 141, 5-(3-(1H-indazol-5-yl)-1,2,4-oxadiazol-5-yl)-2-(allyl-amino)benzonitrile], under 316 nM. For `O=C1CC2(CCC(F)(F)CC2)Oc2ccc(-c3nc(-c4cccnc4)no3)cc21` [Compound 36, 4′,4′-difluoro-6-[3-(pyridin-3-yl)-1,2,4-oxadiazol-5-yl]-3,4-dihydrospiro[1-benzo-pyran-2,1′-cyclohexane]-4-one], the EC50 was over 316 nM. Take `Cc1ccc(-c2noc(-c3ccc4c(c3)nnn4C(C)C)n2)cn1` [Compound 236, 5-[3-(6-methylpyridin-3-yl)-1,2,4-oxadiazol-5-yl]-1-(propan-2-yl)-1H-1,2,3-benzotriazole]: the EC50 was over 316 nM. As to `COc1ccc(-c2noc(-c3ccc4c(c3)nnn4C3CCCCC3)n2)cc1C(F)(F)F` [Compound 284, 1-cyclohexyl-5-{3-[4-methoxy-3-(trifluoro-methyl)phenyl]-1,2,4-oxadiazol-5-yl}-1H-1,2,3-benzotriazole], the EC50 is over 316 nM.

Turning to `CCCn1nnc2cc(-c3nc(-c4cc(C)cc(C)c4)no3)ccc21` [Compound 76, 5-[3-(3,5-dimethyl-phenyl)-1,2,4-oxadiazol-5-yl]-1-propyl-1H-1,2,3-benzotriazole], the EC50 was over 316 nM. Take `CCC1(CC)CC(=O)c2cc(-c3nc(-c4cccc(OC)c4)no3)ccc2O1` [Compound 71, 2,2-diethyl-6-(3-(3-methoxyphenyl)-1,2,4-oxadiazol-5-yl)chroman-4-one]: the EC50 was over 316 nM. Regarding `CCC1(CC)CC(=O)c2cc(-c3nc(-c4cccnc4)ns3)ccc2O1` [Compound 309, 2,2-diethyl-6-(3-(pyridin-3-yl)-1,2,4-thiadiazol-5-yl)chroman-4-one], the EC50 was over 316 nM. Consider `CSc1ccc(-c2nc(-c3ccc4c(c3)nnn4C3CCCC3)no2)cc1` [Compound 237, 3-(1-cyclopentyl-1H-benzo[d][1,2,3]triazol-5-yl)-5-(4-(methyl-thio)phenyl)-1,2,4-oxadiazole], for which the EC50 is over 316 nM. Consider `COC(=O)NS(=O)(=O)n1c(=O)oc2cc(-c3nnc(-c4ccccc4OC)o3)ccc21` [Compound 342, methyl N-({6-[5-(2-methoxyphenyl)-1,3,4-oxadiazol-2-yl]-2-oxo-2,3-dihydro-1,3-benzoxazol-3-yl}sulfonyl)carbamate], for which the EC50 was over 316 nM. The same measure, in the same setting: in the case of `COc1cccc(F)c1-c1noc(-c2ccc3c(cnn3C(C)C)c2)n1` [Compound 338, 3-(2-fluoro-6-methoxy-phenyl)-5-(1-isopropyl-indazol-5-yl)-1,2,4-oxadiazole] it was over 316 nM; in that of `CC(C)n1nnc2cc(-c3nc(-c4ccccc4OC(F)(F)F)no3)ccc21` [Compound 132, 5-(1-isopropyl-1H-benzo[d][1,2,3]triazol-5-yl)-3-(2-(trifluoro-methoxy)phenyl)-1,2,4-oxadiazole], under 316 nM.

Regarding `C=CCNc1ccc(-c2nc(-c3ccc4c(c3)CCC(=O)N4)no2)cc1C#N` [Compound 61, 2-(allylamino)-5-(3-(2-oxo-1,2,3,4-tetrahydroquinolin-6-yl)-1,2,4-oxadiazol-5-yl)benzonitrile], the EC50 was under 316 nM.

Take `Cc1ccncc1-c1noc(-c2ccc3nnn(C(C)C)c3c2)n1` [Compound 264, 6-[3-(4-methylpyridin-3-yl)-1,2,4-oxadiazol-5-yl]-1-(propan-2-yl)-1H-1,2,3-benzotriazole]: the EC50 was over 316 nM. With `CC(C)n1nnc2cc(-c3nnc(-c4ccccc4O)s3)ccc21` [Compound 70, 2-{5-[1-(propan-2-yl)-1H-1,2,3-benzotriazol-5-yl]-1,3,4-thiadiazol-2-yl}phenol], the EC50 is under 316 nM.
